Source: patent US20200181132A1, “QUINOXALINE AND PYRIDOPYRAZINE DERIVATIVES AS PI3K-BETA INHIBITORS” (JANSSEN PHARMACEUTICA NV, priority 2017, published 2020)
Like-named read-outs stand apart in the source and are kept apart here.

Experiments:
[1] = tested on: phosphorylation of Akt at Thr308 in PC-3 cells; test: Cellular assay: phospho-Akt (Thr308) MSD ELISA in PC-3 cells; format: cell-based; conditions: 60 min incubation with compound, read-out: IC50 pAkt_Thr308
Method: (§1) Cellular activity of PI3Kβ inhibitors was determined by quantifying the phosphorylation of Akt in PC-3 cells. Akt phosphorylated at Ser473 and Thr308 were measured using an enzyme-linked immunosorbent assay (ELISA; Meso Scale Discovery (MSD), Gaithersburg, Md.) and specific primary antibodies from MSD.
(§2) On day 1, PC3 cells (ATCC # […]) were seeded into PerkinElmer MW96 plates at 25.000 cells per well, in 75 μl complete culture medium (DMEM high glucose, AQmedia™, D0819, Sigma-Aldrich) containing 10% heat inactivated FCS and incubated at 37° C., 5% CO2 during 24 hours. On day 2, compound or DMSO (0.3%) was added and cells were further incubated for 60 min at 37° C., 5% CO2 in a total volume of 100 μl of medium.
(§3) The phosphoprotein assay was executed according to vendor instructions in the Phospho-Akt (Ser473) Assay Whole Cell Lysate Kit (MSD # K15100D-3) and the Phospho-Akt (Thr308) Assay Whole Cell Lysate Kit (MSD # K151DYD-3) using the lysis, blocking and wash buffer provided.
(§4) Briefly, at the end of the cell treatment period, media were removed by aspiration and adherent cells were lysed in 50 μl ice-cold lysis buffer. MSD plates are supplied pre-coated with capture antibodies for Phospho-Akt (Ser473 and Thr308). After blocking, lysates from tissue culture plates were added and plates were washed. Then, a solution containing the detection antibody (anti-total Akt conjugated with an electrochemiluminescent compound-MSD Sulfo-tag label) was added. The signals were detected using an MSD SECTOR Imager 6000 and are proportional to the phospho-Akt titres.
(§5) Data were processed. The percentage of inhibition was plotted against the log concentration of test compounds, and the sigmoidal log concentration-effect curve of best fit was calculated by nonlinear regression analysis. From these concentration-response curves, the IC50 values were calculated. Five concentrations were used for curve fitting.

[2] = target: T1, PIK3Cγ_h (Homo sapiens, UniProt P48736); test: Enzyme binding assay (KINOMEscan), PIK3Cγ; conditions: DiscoveRx
T1 construct: purchased DiscoveRx Corporation
Method: (§6) Enzyme Binding Assays (KINOMEscan®)
(§7) Kinase enzyme binding affinities of compounds disclosed herein were determined using the KINOMEscan technology performed by DiscoveRx Corporation, San Diego, Calif., USA (www.kinomescan.com). Table A reports the obtained Kd values (nM), with the Kd being the inhibitor binding constant: […]

[3] = target: T2, PIK3Cα_h (Homo sapiens, UniProt P42336); test: Enzyme binding assay (KINOMEscan), PIK3Cα; conditions: DiscoveRx
T2 construct: purchased DiscoveRx Corporation
Method: as §6, §7

[4] = target: T3, PIK3Cδ_h (Homo sapiens, UniProt O00329); test: Enzyme binding assay (KINOMEscan), PIK3Cδ; conditions: DiscoveRx
T3 construct: purchased DiscoveRx Corporation
T3 sequence (O00329 1-1044): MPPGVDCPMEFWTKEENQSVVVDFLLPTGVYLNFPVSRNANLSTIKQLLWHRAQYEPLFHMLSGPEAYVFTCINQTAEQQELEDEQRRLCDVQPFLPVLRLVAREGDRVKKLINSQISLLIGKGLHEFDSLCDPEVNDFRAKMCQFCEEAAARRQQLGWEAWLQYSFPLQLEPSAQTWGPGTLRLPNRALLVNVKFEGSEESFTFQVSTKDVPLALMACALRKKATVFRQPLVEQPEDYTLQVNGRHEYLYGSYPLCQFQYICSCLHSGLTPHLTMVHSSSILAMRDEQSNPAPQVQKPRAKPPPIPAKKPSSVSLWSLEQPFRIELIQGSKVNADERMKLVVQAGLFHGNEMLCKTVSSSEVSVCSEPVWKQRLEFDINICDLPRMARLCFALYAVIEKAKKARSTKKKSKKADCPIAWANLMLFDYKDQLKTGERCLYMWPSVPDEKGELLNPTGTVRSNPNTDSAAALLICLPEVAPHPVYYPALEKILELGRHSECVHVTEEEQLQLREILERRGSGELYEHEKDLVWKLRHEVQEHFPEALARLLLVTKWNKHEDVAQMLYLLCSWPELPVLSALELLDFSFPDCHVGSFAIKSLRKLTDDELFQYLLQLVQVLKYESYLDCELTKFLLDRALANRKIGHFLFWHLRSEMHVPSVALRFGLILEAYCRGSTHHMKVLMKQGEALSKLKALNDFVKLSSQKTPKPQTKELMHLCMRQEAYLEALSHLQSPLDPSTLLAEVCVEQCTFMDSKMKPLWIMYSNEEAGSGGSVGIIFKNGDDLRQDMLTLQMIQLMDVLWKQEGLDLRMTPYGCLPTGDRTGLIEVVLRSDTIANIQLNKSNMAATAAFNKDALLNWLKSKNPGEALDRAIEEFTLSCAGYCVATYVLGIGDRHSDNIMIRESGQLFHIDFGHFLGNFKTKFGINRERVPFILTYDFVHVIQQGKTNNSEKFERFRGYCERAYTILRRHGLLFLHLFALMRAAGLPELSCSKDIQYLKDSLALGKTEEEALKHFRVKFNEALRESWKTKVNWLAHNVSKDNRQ
Method: as §6, §7

[5] = tested on: phosphorylation of Akt at Ser473 in PC-3 cells; test: Cellular assay: phospho-Akt (Ser473) MSD ELISA in PC-3 cells; format: cell-based; conditions: 60 min incubation with compound, read-out: IC50 pAkt_S473
Method: as §1, §2, §3, §4, §5

[6] = target: T4, PIK3Cβ_h (Homo sapiens, UniProt P42338); test: Enzyme binding assay (KINOMEscan), PIK3Cβ; conditions: DiscoveRx
T4 construct: purchased DiscoveRx Corporation
Method: as §6, §7

[7] = target: T5, MTOR_h (Homo sapiens, UniProt P42345); test: Enzyme binding assay (KINOMEscan), MTOR; conditions: DiscoveRx
T5 construct: purchased DiscoveRx Corporation
Method: as §6, §7

T4 sequence (P42338 whole entry): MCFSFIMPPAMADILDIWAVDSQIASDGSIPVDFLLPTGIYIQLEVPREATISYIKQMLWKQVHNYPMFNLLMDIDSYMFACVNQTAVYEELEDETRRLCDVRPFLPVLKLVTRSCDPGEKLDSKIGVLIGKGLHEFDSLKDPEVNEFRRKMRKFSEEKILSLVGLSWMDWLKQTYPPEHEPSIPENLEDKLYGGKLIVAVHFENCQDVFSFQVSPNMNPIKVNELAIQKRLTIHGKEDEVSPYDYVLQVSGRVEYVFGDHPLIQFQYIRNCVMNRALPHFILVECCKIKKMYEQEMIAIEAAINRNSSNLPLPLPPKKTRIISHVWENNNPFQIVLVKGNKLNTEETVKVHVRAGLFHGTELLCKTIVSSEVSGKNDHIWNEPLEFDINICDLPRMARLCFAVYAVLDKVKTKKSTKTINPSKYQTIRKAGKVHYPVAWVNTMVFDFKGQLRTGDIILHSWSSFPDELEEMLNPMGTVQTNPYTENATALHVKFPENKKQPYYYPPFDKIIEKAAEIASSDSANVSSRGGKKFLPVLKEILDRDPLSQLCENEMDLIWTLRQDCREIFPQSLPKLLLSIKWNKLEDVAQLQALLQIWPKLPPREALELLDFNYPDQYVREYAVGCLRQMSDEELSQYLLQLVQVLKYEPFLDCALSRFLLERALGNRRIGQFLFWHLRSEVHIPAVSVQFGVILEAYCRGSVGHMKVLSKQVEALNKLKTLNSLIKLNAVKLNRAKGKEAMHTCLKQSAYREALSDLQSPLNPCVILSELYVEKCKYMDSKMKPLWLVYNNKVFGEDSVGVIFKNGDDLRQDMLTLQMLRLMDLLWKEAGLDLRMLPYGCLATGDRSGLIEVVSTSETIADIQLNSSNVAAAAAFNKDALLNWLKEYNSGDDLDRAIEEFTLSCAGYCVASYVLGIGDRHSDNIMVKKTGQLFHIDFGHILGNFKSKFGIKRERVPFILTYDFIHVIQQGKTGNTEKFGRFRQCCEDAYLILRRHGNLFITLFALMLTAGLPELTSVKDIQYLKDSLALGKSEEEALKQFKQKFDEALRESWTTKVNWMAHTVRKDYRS
T1 sequence (P48736 whole entry): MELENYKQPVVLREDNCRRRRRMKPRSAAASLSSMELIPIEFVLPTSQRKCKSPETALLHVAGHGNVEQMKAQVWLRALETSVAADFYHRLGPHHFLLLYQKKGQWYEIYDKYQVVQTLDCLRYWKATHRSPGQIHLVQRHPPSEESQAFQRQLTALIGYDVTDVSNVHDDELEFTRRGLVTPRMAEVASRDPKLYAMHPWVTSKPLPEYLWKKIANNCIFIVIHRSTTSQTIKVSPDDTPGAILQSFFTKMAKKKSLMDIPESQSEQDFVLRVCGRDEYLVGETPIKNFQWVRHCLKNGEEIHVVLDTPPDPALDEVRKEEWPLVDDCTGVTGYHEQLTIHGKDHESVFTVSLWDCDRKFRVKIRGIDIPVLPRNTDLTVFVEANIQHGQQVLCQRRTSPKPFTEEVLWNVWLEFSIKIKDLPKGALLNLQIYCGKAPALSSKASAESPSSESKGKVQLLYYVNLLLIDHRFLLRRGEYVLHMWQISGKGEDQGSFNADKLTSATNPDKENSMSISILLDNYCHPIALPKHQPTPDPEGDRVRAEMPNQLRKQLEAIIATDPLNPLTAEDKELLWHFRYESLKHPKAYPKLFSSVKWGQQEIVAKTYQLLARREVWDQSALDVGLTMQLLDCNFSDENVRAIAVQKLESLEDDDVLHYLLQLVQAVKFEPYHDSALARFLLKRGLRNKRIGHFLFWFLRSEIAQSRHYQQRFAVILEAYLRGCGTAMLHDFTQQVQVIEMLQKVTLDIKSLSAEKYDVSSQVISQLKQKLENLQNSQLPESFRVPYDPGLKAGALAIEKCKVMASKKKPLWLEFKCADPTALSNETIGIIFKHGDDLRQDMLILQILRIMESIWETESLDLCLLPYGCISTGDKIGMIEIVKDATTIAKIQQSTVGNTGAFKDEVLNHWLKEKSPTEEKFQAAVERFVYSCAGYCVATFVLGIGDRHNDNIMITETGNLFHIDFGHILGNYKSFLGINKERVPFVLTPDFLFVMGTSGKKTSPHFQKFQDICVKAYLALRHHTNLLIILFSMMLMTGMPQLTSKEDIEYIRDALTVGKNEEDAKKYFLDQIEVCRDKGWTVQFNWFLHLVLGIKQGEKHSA
T2 sequence (P42336 whole entry): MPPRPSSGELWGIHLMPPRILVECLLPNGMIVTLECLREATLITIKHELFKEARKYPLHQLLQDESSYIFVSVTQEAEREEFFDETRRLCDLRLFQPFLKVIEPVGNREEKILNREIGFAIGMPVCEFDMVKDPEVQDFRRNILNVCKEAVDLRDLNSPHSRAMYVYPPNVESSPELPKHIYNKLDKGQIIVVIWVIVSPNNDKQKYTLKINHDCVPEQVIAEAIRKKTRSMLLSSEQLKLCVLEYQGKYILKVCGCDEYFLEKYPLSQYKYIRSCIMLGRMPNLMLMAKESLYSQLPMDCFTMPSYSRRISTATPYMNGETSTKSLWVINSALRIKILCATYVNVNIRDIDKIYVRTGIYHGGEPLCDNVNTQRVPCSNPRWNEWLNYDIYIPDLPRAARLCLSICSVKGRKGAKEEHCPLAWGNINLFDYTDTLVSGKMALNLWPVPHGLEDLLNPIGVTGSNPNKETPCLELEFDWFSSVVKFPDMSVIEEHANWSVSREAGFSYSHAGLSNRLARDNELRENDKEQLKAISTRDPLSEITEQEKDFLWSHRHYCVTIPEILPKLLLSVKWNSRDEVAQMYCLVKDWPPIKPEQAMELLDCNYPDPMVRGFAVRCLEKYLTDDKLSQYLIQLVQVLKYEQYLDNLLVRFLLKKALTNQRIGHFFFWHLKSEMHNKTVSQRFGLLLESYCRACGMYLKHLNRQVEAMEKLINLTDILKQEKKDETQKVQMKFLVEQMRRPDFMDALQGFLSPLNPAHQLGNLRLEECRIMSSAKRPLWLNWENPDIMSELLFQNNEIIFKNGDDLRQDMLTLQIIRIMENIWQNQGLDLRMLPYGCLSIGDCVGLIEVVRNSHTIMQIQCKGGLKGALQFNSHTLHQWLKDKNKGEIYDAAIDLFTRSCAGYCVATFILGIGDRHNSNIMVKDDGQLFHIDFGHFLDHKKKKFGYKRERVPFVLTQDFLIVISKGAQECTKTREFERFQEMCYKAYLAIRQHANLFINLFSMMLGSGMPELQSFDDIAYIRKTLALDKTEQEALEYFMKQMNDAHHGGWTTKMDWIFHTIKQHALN

CC(Nc1cncc(F)c1)c1cc(C(=O)NCCN(C)C)cc2ncc(N3CCOCC3)nc12 (single isomer, unassigned) [Compound 34]
IC50 [1]: 0.007 µM
Kd [2]: 3.89 µM
Kd [3]: 2.19 µM
melting point: 194 °C
Kd [4]: 0.166 µM
IC50 [5]: 0.014 µM
Kd [6]: 0.0004 µM
Kd [7]: > 30.2 µM

CC(Nc1cncc(F)c1)c1cc(C(=O)NCCN(C)C)cc2ncc(N3CCOCC3)nc12 (single isomer, unassigned) [Compound 35]
IC50 [1]: > 0.513 µM
Kd [2]: 4.79 µM
Kd [3]: 15.5 µM
melting point: 190 °C
Kd [4]: 1.44 µM
IC50 [5]: > 0.513 µM
Kd [6]: 0.008 µM
Kd [7]: 12 µM

CN(C)CCNC(=O)c1cc(C2CCCN2c2ccnc(F)c2)c2nc(N3CCOCC3)cnc2c1 (single isomer, unassigned) [Compound 38]
IC50 [1]: 0.059 µM
Kd [2]: 20.9 µM
Kd [3]: 11.5 µM
melting point: 177 °C
Kd [4]: 1.41 µM
IC50 [5]: 0.011 µM
Kd [6]: 0.008 µM
Kd [7]: > 30.2 µM

CN(C)C(=O)c1cc(C2CCCN2c2cc(Cl)ncn2)c2nc(N3CCOCC3)cnc2c1 (centres unmarked) [Compound 1]
IC50 ([1]; Homo sapiens, PC-3, 1 h): > 0.513 µM
Kd [2]: > 30.2 µM
Kd [3]: 16.6 µM
melting point: 80 °C
Kd [4]: 1.41 µM
IC50 ([5]; Homo sapiens, PC-3, 1 h): > 0.513 µM
Kd [6]: 0.042 µM
Kd [7]: > 30.2 µM

Cc1cc(N2CCCC2c2cc(C(=O)N(C)C)cc3ncc(N4CCOCC4)nc23)cc(C)n1 (centres unmarked) [Compound 2]
IC50 ([1]; Homo sapiens, PC-3, 1 h): > 0.513 µM
Kd [2]: 20.9 µM
Kd [3]: > 30.2 µM
melting point: 138 °C
Kd [4]: 5.89 µM
IC50 ([5]; Homo sapiens, PC-3, 1 h): > 0.513 µM
Kd [6]: 0.162 µM
Kd [7]: > 30.2 µM

Cc1cc(N2CCCC2c2cc(C(=O)N(C)C)cc3ncc(N4CCOCC4)nc23)nc(C)n1 (centres unmarked) [Compound 3]
IC50 ([1]; Homo sapiens, PC-3, 1 h): > 0.513 µM
Kd [2]: > 30.2 µM
Kd [3]: > 30.2 µM
melting point: 186 °C
Kd [4]: 25.1 µM
IC50 ([5]; Homo sapiens, PC-3, 1 h): > 0.513 µM
Kd [6]: 2.04 µM
Kd [7]: > 30.2 µM

Cc1nccc(N2CCCC2c2cc(C(=O)N(C)C)cc3ncc(N4CCOCC4)nc23)n1 (centres unmarked) [Compound 4]
IC50 ([1]; Homo sapiens, PC-3, 1 h): > 0.513 µM
Kd [2]: > 30.2 µM
Kd [3]: 28.8 µM
melting point: 110 °C
Kd [4]: 22.4 µM
IC50 ([5]; Homo sapiens, PC-3, 1 h): > 0.513 µM
Kd [6]: 1.55 µM
Kd [7]: > 30.2 µM

Cc1cc(C)nc(N2CCCC2c2cc(C(=O)N(C)C)cc3ncc(N4CCOCC4)nc23)n1 (centres unmarked) [Compound 5]
IC50 ([1]; Homo sapiens, PC-3, 1 h): 0.417 µM
Kd [2]: 26.9 µM
Kd [3]: 5.37 µM
melting point: 100 °C
Kd [4]: 0.832 µM
IC50 ([5]; Homo sapiens, PC-3, 1 h): > 0.513 µM
Kd [6]: 0.022 µM
Kd [7]: > 30.2 µM

COc1ncc(NC(C)c2cc(C(=O)N(C)C)cc3ncc(N4CCOCC4)nc23)cc1C(F)(F)F (centres unmarked) [Compound 24]
IC50 ([1]; Homo sapiens, PC-3, 1 h): > 0.513 µM
Kd [2]: > 30.2 µM
Kd [3]: > 30.2 µM
melting point: 80 °C
Kd [4]: 8.32 µM
IC50 ([5]; Homo sapiens, PC-3, 1 h): > 0.513 µM
Kd [6]: 0.589 µM
Kd [7]: > 30.2 µM

CC(Nc1cncc(Cl)n1)c1cc(C(=O)N(C)C)cc2ncc(N3CCOCC3)nc12 (centres unmarked) [Compound 25]
IC50 ([1]; Homo sapiens, PC-3, 1 h): 0.468 µM
Kd [2]: 28.8 µM
Kd [3]: 16.2 µM
melting point: 225 °C
Kd [4]: 1.32 µM
IC50 ([5]; Homo sapiens, PC-3, 1 h): > 0.513 µM
Kd [6]: 0.021 µM
Kd [7]: > 30.2 µM

COc1ncc(F)cc1NC(C)c1cc(C(=O)N(C)C)cc2ncc(N3CCOCC3)nc12 (centres unmarked) [Compound 26]
IC50 ([1]; Homo sapiens, PC-3, 1 h): 0.191 µM
Kd [2]: > 30.2 µM
Kd [3]: 5.01 µM
melting point: 80 °C
Kd [4]: 0.661 µM
IC50 ([5]; Homo sapiens, PC-3, 1 h): > 0.513 µM
Kd [6]: 0.015 µM
Kd [7]: > 30.2 µM

Cc1ccncc1CNc1cc(C(=O)NCCO)cc2ncc(N3CCOCC3)nc12 [Compound 28]
IC50 ([1]; Homo sapiens, PC-3, 1 h): > 0.513 µM
Kd [2]: 25.7 µM
Kd [3]: 16.2 µM
melting point: 244 °C
Kd [4]: 15.5 µM
IC50 ([5]; Homo sapiens, PC-3, 1 h): > 0.513 µM
Kd [6]: 1.26 µM
Kd [7]: 30.9 µM

CN(C)CCNC(=O)c1cc(C2CCCN2c2cncc(F)c2)c2nc(N3CCOCC3)cnc2c1 (centres unmarked) [Compound 36]
IC50 ([1]; Homo sapiens, PC-3, 1 h): 0.004 µM
Kd [2]: 3.39 µM
Kd [3]: 1.7 µM
melting point: 206 °C
Kd [4]: 0.295 µM
IC50 ([5]; Homo sapiens, PC-3, 1 h): 0.005 µM
Kd [6]: 0.0001 µM
Kd [7]: > 30.2 µM

O=C(NCCO)c1cc(C2CCCN2c2cncc(F)c2)c2nc(N3CCOCC3)cnc2c1 (centres unmarked) [Compound 43]
IC50 ([1]; Homo sapiens, PC-3, 1 h): 0.04 µM
Kd [2]: 1 µM
Kd [3]: 0.447 µM
melting point: 191 °C
Kd [4]: 0.166 µM
IC50 ([5]; Homo sapiens, PC-3, 1 h): ~0.002 µM
Kd [6]: 0.003 µM
Kd [7]: 11.5 µM

O=C(c1cc(C2CCCN2c2cncc(F)c2)c2nc(N3CCOCC3)cnc2c1)N1CC2(C1)CS(=O)(=O)C2 (centres unmarked) [Compound 44]
IC50 ([1]; Homo sapiens, PC-3, 1 h): 0.03 µM
Kd [2]: 4.07 µM
Kd [3]: 0.575 µM
melting point: 130 °C
Kd [4]: 0.24 µM
IC50 ([5]; Homo sapiens, PC-3, 1 h): 0.049 µM
Kd [6]: 0.002 µM
Kd [7]: 31.6 µM

CNCCNC(=O)c1cc(C2CCCN2c2ccnc(Cl)c2)c2nc(N3CCOCC3)cnc2c1 (centres unmarked) [Compound 48]
IC50 ([1]; Homo sapiens, PC-3, 1 h): > 0.513 µM
Kd [2]: 18.2 µM
Kd [3]: 10 µM
melting point: 80 °C
Kd [4]: 0.372 µM
IC50 ([5]; Homo sapiens, PC-3, 1 h): > 0.513 µM
Kd [6]: 0.002 µM
Kd [7]: > 30.2 µM
